pIC50: −log10 of the molar value.
How the values were obtained:
[1] = test system: Staphylococcus aureus; test: Antibacterial activity against Staphylococcus aureus CGMCC 1.2465 after 24 hrs; details: CGMCC 1.2465, 24 h
[2] = test system: Streptococcus pneumoniae; test: Antibacterial activity against Streptococcus pneumoniae CGMCC 1.1692 after 24 hrs; assay type: functional, organism-based; details: CGMCC 1.1692, 24 h
[3] = test system: A549; test: Cytotoxicity against human A549 cells assessed as inhibition of cell viability by MTT assay; assay type: functional, cell-based
[4] = test system: Candida albicans; test: Antifungal activity against Candida albicans CGMCC 2.2086 after 24 hrs; assay type: functional, organism-based; details: CGMCC 2.2086, 24 h

SMILES | pIC50 [1] | pIC50 [2] | pIC50 [4] | pIC50 ([3]; Homo sapiens, A549) | pIC50 ([3]; a549)
O=c1[nH]c(Cc2ccc(O)cc2)nc2ccccc12 | < 3.82 | < 3.82 | – | < 3.92 | < 3.92
C[C@@H]1[C@H](O)[C@@H](C)/C=C/C=C/C=C/C=C/C=C/C=C/C=C/[C@H](O[C@@H]2O[C@H](C)[C@@H](O)[C@H](N)[C@@H]2O)C[C@@H]2O[C@](O)(C[C@@H](O)C[C@@H](O)[C@H](O)CC[C@@H](O)C[C@@H](O)CC(=O)O[C@H]1C)C[C@H](O)[C@H]2C(=O)O [AMPHOTERICIN B] | – | – | 6.14 | – | –
CC1(C)S[C@@H]2[C@H](NC(=O)[C@H](N)c3ccccc3)C(=O)N2[C@H]1C(=O)O [AMPICILLIN] | 7.22 | 5.97 | – | – | –
C/C(=N\Nc1ccccc1C(=O)O)C(=O)NCC(=O)O [FARYLHYDRAZONE A] | < 3.82 | < 3.82 | – | < 3.92 | < 3.92

Second part, led by results:

pIC50 [1] | pIC50 [2] | pIC50 [4] | SMILES | pIC50 ([3]; Homo sapiens, A549) | pIC50 ([3]; a549)
< 3.82 | < 3.82 | – | C/C(=N\Nc1ccccc1C(=O)O)C(=O)O [FARYLHYDRAZONE B] | < 3.92 | < 3.92
< 3.82 | < 3.82 | < 3.82 | CC[C@@H](C)C[C@@H](C)/C=C(C)/C=C/C=C/C(=O)c1c(O)c([C@]2(O)CC[C@@H](O)CC2)cn(O)c1=O [MILITARINONE A] | 5.76 | –
5.68 | 5.59 | 4.36 | CC[C@@H](C)C[C@@H](C)/C=C(C)/C=C/C=C/C(=O)c1c(O)c(-c2ccc(O)cc2)c[nH]c1=O [MILITARINONE B] | < 3.92 | –
< 3.82 | < 3.82 | < 3.82 | CC[C@@H](C)C[C@@H](C)/C=C(C)/C=C/C=C/C(=O)c1c(O)c(C2=CC[C@@H](O)CC2)cn(O)c1=O [MILITARINONE E] | 5.80 | –
< 3.82 | < 3.82 | – | CC[C@@H](C)C[C@@H](C)/C=C(C)/C=C/C=C/C(=O)c1c(O)c([C@]23CC[C@H](CC2)O3)cn(O)c1=O [MILITARINONE F] | < 3.92 | < 3.92

From ChEMBL document CHEMBL1667731, “N-hydroxypyridones, phenylhydrazones, and a quinazolinone from Isaria farinosa” (J Nat Prod, 2011)
